Patent publication US9011853B2, “B7-H4 fusion proteins and methods of use thereof” (Amplimmune, Inc., priority 2009, dated 2015)

How the values were obtained:
SJL mice = assay: Delayed-type hypersensitivity (DTH) responses, 24 hr ear swelling assay in R-EAE mice; type: in vivo, mouse; conditions: given from Day 0, 5 injections, both 3 mg/kg (60 μg) and 15 mg/kg (300 μg); ear challenge Day 10 (FIG. 39)
Method: DTH responses were quantitated using a 24 hr ear swelling assay as previously described. Pre-challenge ear thickness was determined using a Mitutoyo model 7326 engineer's micrometer (Schlesinger's Tools, Brooklyn, N.Y.). Immediately thereafter, DTH responses were elicited by injecting 10 μg of peptide in 10 μL of PBS into the dorsal surface of the ear using a 100 μL Hamilton syringe fitted with a 30 gauge needle. The increase in ear thickness over pre-challenge measurements was determined 24 hr after ear challenge. Results are expressed in units of 10^−4 inches±SEM. […] Significance of ear swelling in murine B7-H4-Ig treated mice over Control IgG injected mice was assessed by the Student's t test.
To determine the effect of B7-H4-Ig on blocking CD4^+ T cell mediated activity specific for the primary myelin-derived epitope PLP139-151 and epitope spreading, peptide-specific responses in vivo via DTH on all 4 treatment groups were analyzed. Mice were ear challenged with 10 μg of the indicated peptides on Day 50, and swelling was measured 24 h later.
To clarify the effect of B7-H4-Ig on the EAE acute phase, a 2nd in vivo experiment was conducted in the PLP139-151 induced MAE model. […] Mice were ear challenged with 10 μg of PLP139-151 on Day 10, and swelling was measured 24 h later. […]

[1] = tested on: lymph node cells and splenocytes; assay: In vitro antigen-specific recall responses of cells from treated R-EAE mice; type: in vivo, mouse
Method: Draining lymph nodes (axillary, brachial, and inguinal) were harvested, and single cell suspensions were obtained by mashing through sterile 60-mesh wire screens. In 96-well microtiter plates, 5×10^5 erythrocyte-free (Tris-NH4Cl-treated) lymph node cells per well were incubated in supplemented culture medium with or without antigen at 37° C. in 7% CO2 for […] and then pulsed with 1 μCi/well of [^3H]-Thymidine for the final 48 h of culture. Proliferation was determined by uptake of [^3H]-Thymidine detected using a Topcount Microplate Scintillation Counter (Packard Instruments, Meridan, Conn.). Results are expressed as the mean of triplicate cultures from individual animal±SEM. Supernatants were collected at 72 hr for cytokine analysis. Cytokine measurements were performed using the Mouse Cytokine 10-Plex system and Luminex Liquidchip analyzer (Qiagen, Valencia, Calif.) or ELISA.
Lymph nodes were isolated from the murine B7-H4-Ig and Control IgG injected EAE mice as described above. T cells were harvested and were elicited with PLP139-151, the disease inducing dominant epitope, and PLP178-191, the spread epitope-specific peptide, in vitro. [^3H]-thymidine was added to the in vitro stimulation assay to analyze T cell proliferation.
Lymph nodes were isolated from Control IgG and murine B7-H4-Ig treated mice as described above. T cells were harvested and immune responses were elicited with PLP139-151, the disease inducing dominant peptide, and PLP178-191, the spread epitope peptide, in vitro. Supernatant was collected and analyzed for IFN-γ via commercially available ELISA kit.
Draining lymph nodes were harvested from the animals, and single cell suspensions prepared as described above and reactivated in vitro in the presence of anti-CD3 (0.1-10 μg/mL), PLP139-151 (1-20 μg/mL), or OVA323-339 (1-20 μg/mL). T cell proliferation in vitro was analyzed by [^3H] thymidine incorporation.
The impact of B7-H4-Ig treatment on epitope spreading was also examined. To do so, spleens and draining lymph nodes were collected from the same mice that were analyzed for the number and phenotype of CD4^+ T cells. SJL mouse were immunized with 50 μg of PLP139-151 peptide emulsified in CFA. Mice were treated B7-H4-Ig during remission: 60 or 100 ug per dose, 3 doses/wk, for 2 weeks (6 doses). On Day 35 total splenocytes and lymph node cells (5×10^5 cells per 200 ul culture) were activated in separate wells per mouse in the presence of anti-CD3 (1 ug/ml), PLP139-151 or PLP178-191 (20 μg/mL). At 24 hours following the initiation of culture, 1 μCi of ^3[H] tritiate thymidine was added to each well and wells were analyzed at 72 hours post the initiation of culture. This presented as the mean CPM. […] Therefore, B7-H4-Ig treatment during remission of ongoing R-EAE in SJL mice appears to decrease epitope spreading via an increase in the number of Treg cells. […] The higher dose appears more efficacious to lower the disease score at later time points (beyond Day 42 post disease initiation).

[2] = tested on: naïve CD4^+CD62L^+ T cells; assay: In vitro Th2 polarization, proliferation; type: cell-based, mouse; conditions: Th2 conditions: IL-2, IL-4, anti-IL12 and anti-IFN-γ (FIG. 23)
Text: B7-H4-Ig has no impact on Th2 cells using the same target, naïve CD4^+CD62L^+ T cells, under Th2 in vitro polarization conditions: IL-2, IL-4, anti-IL12 and anti-IFN-γ (FIG. 23).

Human T cells = assay: Quantitative RT-PCR of human T cells under Th17 differentiation cocktail; type: cell-based; conditions: 1 μg/mL, vs Synagis (FIG. 55)
Method: Human T cells were activated by anti-CD3 and anti-CD28 bound beads in the presence of Th17 differntiation cocktail (TGF-β1 (10 ng/mL), IL-6 (50 ng/mL), IL-23 (4 ng/mL), anti-IL-4 (10 μg/mL), anti-IFN-γ (5 μg/mL) and anti-IL-2 (5 μg/mL)). Cells were incubated with two different variants of B7-H4-Ig (1 μg/mL) identified as Q or L, or a humanized monoclonal IgG antibody directed against an epitope in the A antigenic site of the F protein of the Respiratory Syncytial Virus (Synagis), as an isotype control.

[3] = Day 35 splenocytes and lymph node cells, treated during remission 60 or 100 ug per dose, 3 doses/wk, 2 weeks (FIGS. 45A, 45B)

“B7-H4-Ig: B7-H4 extracellular domain fused to Ig Fc; bare label is the human protein in Example 3, murine protein in Examples 1, 2, 5, 7-11” was tested, and the “DTH response to PLP139-151 peptide versus OVA323-339 peptide” value (SJL mice) was “significantly inhibited”, the “proliferative response to PLP139-151” value [1, 3] was “decreased the proliferative response” and the “proliferative response to PLP178-191” value [1, 3] was “decreased the proliferative response”. The “IFN-γ production in ex vivo T cell recall with PLP139-151 peptide” value ([1]; administered on Day 0 (FIG. 38)) was “specific inhibition of immune response to PLP139-151 peptide”, the “T cell proliferation when stimulated with anti-CD3” value ([1]; draining lymph nodes, Day 10 study (FIG. 40)) was “robust T cell proliferation” and the “T cell response to PLP139-151 peptide stimulation ([3H] thymidine)” value ([1]; draining lymph nodes, Day 10 study, both 3 and 15 mg/kg doses (FIG. 40)) was “little to no response”. For the same substance, the “impact on Th2 cells (proliferation)” value [2] was “no impact” and the “expression of mRNA involved in Th17 cell differentiation (RORc, IL-17A, IL-17F, IL-21, IL-22)” value (Human T cells) was “downregulates the expression of mRNA involved in Th17 cell differentiation”.
